From patent publication US12090204B2, “Photodynamic therapy compositions and methods of use thereof” (Pinnacle Biologics, Inc., priority 2020, dated 2024)
Several values for one entry are separate records, joined by “and”; a condition that tells them apart may be missing. Identical values can stand only once.

What was measured:
[1] = system: P. acnes (+); test: porfimer sodium aPDT, planktonic culture; type: cell-based, Proprionibacterium acnes (Cutibacterium acnes); conditions: 630 nm, kill at 75 J/cm2 (light dose 50-100 J/cm2), porfimer sodium 150 μg/mL
Experimental: (§1) Bacteria were routinely cultured using tryptic soy broth or agar at 37° C. in a 5% CO2 incubator. Bacteria were isolated and suspended with 0.9% NaCl to an Optical Density (OD) of 0.1 taken at 630 nm, to generate the inoculum used for either planktonic or biofilm assays.
(§2) Experiments using planktonic cultures were carried out using M. catarrhalis, as a standard for further comparisons and to determine the effective drug concentration, porfimer sodium incubation time and light dose parameters which would provide an effective cell kill at the level of 5-7 logs. Once determined the experiments were repeated for all other bacterial strains examined.
(§3) The colony forming units (CFU) per mL of the starting inoculum for every experiment was determined by dilution plating. […]
(§4) Bacteria were exposed to 630 nm laser light via a fiber optic with a lens affixed to the distal end to provide a uniform diverging light field. […] Power output of the laser was measured using a UDT/Gamma Scientific 371 optical power meter and an integrating sphere. […]
(§5) Biofilms were formed on glass coupons in culture dishes containing a bacterial inoculum for 48 hours under conditions specific to the strain. […] Power output of the laser was measured using a UDT/Gamma Scientific 371 optical power meter and an integrating sphere. […]

[2] = system: Moraxella catarrhalis; test: abraded skin wounds, culture swabs (Example 3); type: in vivo, Yorkshire pigs
From the text: (§6) On Day −2 of the study, pigs were anesthetized and the skin aseptically prepared. Superficial wounds were created using the tape strip method until punctate bleeding was observed. Also on Day −2, eight wounds per pig were inoculated with one of three bacterial cultures (Haemophilus influenza, Moraxella catarrhalis, or Staphylococcus aureus) at a concentration of 10^7-10^8 CFUs per mL. There were two control sites on each side. […] The wounds were covered, analgesia in the form of buprenorphine (IM, 0.03 mg/kg) was provided, and the animals were recovered from anesthesia.
(§7) On Day 0, culture swabs were collected from each wound prior to dosing. Six wounds per pig were treated with the test article and the laser light treatment. Culture swabs were collected from the test wounds 1 hour following laser light treatment and the animals were recovered from anesthesia. On Day 1, culture swabs were collected from the treated wounds and two wounds per pig were treated a second time with the test article and the laser light treatment. Culture swabs were collected from these test wounds 1 hour following laser light treatment and the animals were recovered from anesthesia. On Day 2, culture swabs were collected from each wound just prior to euthanasia.
(§8) Porfimer sodium administration: to prepare the test article, 75 mg of porfimer sodium was reconstituted with the currently FDA approved method of 31.8 mL of 0.9% sodium chloride, resulting in a stock solution of 2.5 mg/mL. Due to concerns about stability of the solution, the solution was used immediately. A 10 ml solution at a concentration of 0.3 mg/ml (300 mcg/ml), in 0.9% Sodium Chloride Injection (USP) was prepared. 300 μg of porfimer sodium was applied as a saline solution to infected wounds (except controls) and incubated for 30 minutes prior to activation. The sites were exposed to a 630 nm laser light for up to 20 minutes. The light source, a 630PDT laser. Each wound was exposed to 200 J/cm^2.

[3] = system: Haemophilus influenza; test: abraded skin wounds, culture swabs (Example 3); type: in vivo, Yorkshire pigs
From the text: as §6, §7, §8

[4] = system: Staphylococcus aureus; test: abraded skin wounds, culture swabs (Example 3); type: in vivo, Yorkshire pigs; conditions: for Log CFU/site, Sa: sites 2, 7: hydrogel formulation, treated twice (LPT)
From the text: as §6, §7, §8

[5] = system: planktonic and biofilm bacterial populations; test: porfimer sodium photodynamic therapy in vitro, overall summary; type: cell-based
Experimental: This study evaluated the bactericidal efficacy of porfimer sodium based photodynamic therapy against standard and antibiotic resistant bacterial strains in planktonic and biofilm cultures. The primary efficacy endpoint was the overall cell kill analysis as determined by the enumeration of viable colony forming assays post PDT treatments as analyzed using the unpaired students two-tailed t test on log transformed data.
Planktonic cultures were prepared by adding bacteria to glass vials with saline and porfimer sodium to a final concentration ranging from 125 μg/ml to 150 μg/ml.
Biofilms were formed on glass coupons in culture dishes containing a bacterial inoculum for 48 hours under conditions specific to the strain. The glass coupon attached biofilms were then rinsed with saline, by dipping method, prior to the administration of the porfimer sodium. The biofilms were incubated in the dark for 15-30 minutes with a reconstituted saline solution of porfimer sodium at final concentrations ranging from 75 μg/ml-250 μg/ml. The porfimer sodium treated biofilms were then exposed to light doses at 630 nm light of 50-200 J/cm^2 at a power density of 150 milliwatts per cm^2. […] Power output of the laser was measured using a UDT/Gamma Scientific 371 optical power meter and an integrating sphere. […]

[6] = system: S. pneumo (+); test: porfimer sodium aPDT, planktonic culture; type: cell-based, Streptococcus pneumoniae; conditions: 630 nm, 100 J/cm2, porfimer sodium 125 μg/mL
Experimental: as §1, §2, §3, §4, §5

[7] = system: B. atrophaeus (+); test: porfimer sodium aPDT, planktonic culture; type: cell-based, Bacillus atrophaeus; conditions: 630 nm, 200 J/cm2, porfimer sodium 125 μg/mL
Experimental: as §1, §2, §3, §4, §5

[8] = system: Prevotella (−); test: porfimer sodium aPDT, planktonic culture; type: cell-based; conditions: 630 nm, kill at 75 J/cm2 (light dose 50-100 J/cm2), porfimer sodium 150 μg/mL
Experimental: as §1, §2, §3, §4, §5

[9] = system: P. gingivalis (−); test: porfimer sodium aPDT, planktonic culture; type: cell-based, Porphyromonas gingivalis; conditions: 630 nm, kill at 75 J/cm2 (light dose 50-100 J/cm2), porfimer sodium 150 μg/mL
Experimental: as §1, §2, §3, §4, §5

[10] = system: F. nucleatum (−); test: porfimer sodium aPDT, planktonic culture; type: cell-based, Fusobacterium nucleatum; conditions: 630 nm, 50 J/cm2, porfimer sodium 125 μg/mL
Experimental: as §1, §2, §3, §4, §5

[11] = 300 μg porfimer sodium, 30 minutes, 630 nm 200 J/cm^2

With porfimer sodium the Rate of kill [1] was 7Log, the “antimicrobial activity when applied to inoculated wounds” value (from here on “antimicrobial activity when applied”) [2, 11] was “did not provide antimicrobial activity” and the “Log CFU/site, Mc” value ([2]; sites 3, 8: porfimer sodium in saline, treated once (LPO), day 2, terminal) was 3.1 × 10^6 Log CFU/site and 3.0 × 10^4 Log CFU/site. The “antimicrobial activity when applied” value [3, 11] was “did not provide antimicrobial activity”, the “Log CFU/site, Hi” value ([3]; sites 1, 6: hydrogel formulation, treated once (LPO), day 1, 24 h post tx) was 3.0 × 10^5 Log CFU/site and the “Log CFU/site, Hi” value ([3]; sites 2, 7: hydrogel formulation, treated twice (LPT), day 0, 1 h-post tx) was 1.3 × 10^4 Log CFU/site and 1.2 × 10^2 Log CFU/site. For the same substance, the “Log CFU/site, Hi” value ([3]; sites 2, 7: hydrogel formulation, treated twice (LPT), day 1, pre 2nd tx) was 2.0 × 10^4 Log CFU/site and 2.3 × 10^3 Log CFU/site, the “antimicrobial activity when applied” value [4, 11] was “did not provide antimicrobial activity” and the “Log CFU/site, Sa” value ([4]; day 1, 1 h-post 2nd tx) was 2.1 × 10^5 Log CFU/site and 2.2 × 10^4 Log CFU/site. For the same substance, the “Log CFU/site, Sa” value ([4]; day 2, terminal) was 1.2 × 10^5 Log CFU/site and 1.3 × 10^6 Log CFU/site, the “log reductions in bacterial loads” value [5] was 5-6 log and the “reduction in bacterial loads” value [5] was over 99%. For the same substance, the Rate of kill [6] was over 4Log, the Rate of kill [7] was 6Log and the Rate of kill [8] was 7Log. For the same substance, the Rate of kill [9] was 7Log and the Rate of kill [10] was 3Log.
